# Experimental data as given in article PMC11188740, “A small molecule that inhibits the evolution of antibiotic resistance” (NAR Molecular Medicine, 2024).
# Legend:
# Mfd [1] = biological target: T1, Mfd (Escherichia coli, UniProt P30958); assay: microscale thermophoresis (His-tag labeled Mfd); also RNAP displacement assay with purified Mfd; assay type: binding
# T1 construct: purified His-tagged E. coli Mfd (expressed from pCA24N-Mfd)
# Mfd [2] = biological target: T1, Mfd; assay: NADH-coupled ATPase assay, Michaelis–Menten Km without ARM-1; assay type: biochemical
# Description: NADH-coupled ATPase assay, Michaelis–Menten Km without ARM-1 on Mfd | Kinetic constants of Mfd ATPase activity determined using Michaelis–Menten modeling
# T1 sequence (P30958 whole entry): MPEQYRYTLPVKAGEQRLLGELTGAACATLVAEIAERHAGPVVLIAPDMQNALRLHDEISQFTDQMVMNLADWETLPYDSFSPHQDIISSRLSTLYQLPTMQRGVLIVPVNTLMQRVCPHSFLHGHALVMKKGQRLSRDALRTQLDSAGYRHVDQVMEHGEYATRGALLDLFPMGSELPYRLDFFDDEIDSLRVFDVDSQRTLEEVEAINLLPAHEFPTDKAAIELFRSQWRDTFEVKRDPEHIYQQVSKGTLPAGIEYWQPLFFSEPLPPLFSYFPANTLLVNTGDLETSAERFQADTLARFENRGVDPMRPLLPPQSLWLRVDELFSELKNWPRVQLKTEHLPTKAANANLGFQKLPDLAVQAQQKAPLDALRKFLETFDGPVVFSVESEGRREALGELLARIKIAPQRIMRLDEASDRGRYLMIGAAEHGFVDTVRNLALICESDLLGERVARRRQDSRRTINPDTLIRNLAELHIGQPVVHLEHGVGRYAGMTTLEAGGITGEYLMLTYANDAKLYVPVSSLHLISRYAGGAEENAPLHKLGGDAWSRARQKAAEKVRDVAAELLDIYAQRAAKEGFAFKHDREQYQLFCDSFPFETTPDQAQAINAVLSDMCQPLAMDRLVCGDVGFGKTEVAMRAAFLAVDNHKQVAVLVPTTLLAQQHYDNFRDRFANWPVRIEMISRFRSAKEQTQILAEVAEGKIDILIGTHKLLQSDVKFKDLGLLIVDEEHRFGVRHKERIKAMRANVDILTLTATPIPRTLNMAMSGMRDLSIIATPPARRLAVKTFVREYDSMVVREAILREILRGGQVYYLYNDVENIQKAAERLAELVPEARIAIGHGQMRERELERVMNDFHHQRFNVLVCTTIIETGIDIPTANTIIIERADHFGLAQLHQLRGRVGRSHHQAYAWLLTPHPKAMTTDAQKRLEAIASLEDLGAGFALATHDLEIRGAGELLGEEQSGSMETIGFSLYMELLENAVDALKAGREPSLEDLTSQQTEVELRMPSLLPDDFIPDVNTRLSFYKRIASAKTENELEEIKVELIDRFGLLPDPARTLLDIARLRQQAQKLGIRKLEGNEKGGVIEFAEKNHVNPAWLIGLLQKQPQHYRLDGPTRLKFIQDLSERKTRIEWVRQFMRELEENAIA
SMILES,Kd (Mfd [1]) [µM],K m / Mean (Mfd [2])
Cc1cc(Br)ccc1-c1ccc(CNCCCN(C)C)o1 [ARM-1],4.25,
Nc1ncnc2c1ncn2[C@@H]1O[C@H](COP(=O)(O)OP(=O)(O)OP(=O)(O)O)[C@@H](O)[C@H]1O [ATP],,0.954
